Laboratory results published in the NIST ThermoML archive (doi:10.1016/j.fluid.2004.09.013).

Conditions: for mass density: Fluid (supercritical or subcritical phases), Vibrating tube method; for vapor or sublimation pressure: Liquid

C/C=C/C [(E)-2-butene]
Conditions	mass density [kg/m3]
328.22 K, 39992 kPa	620.09
333.22 K, 1143 kPa	554.92
333.22 K, 5001 kPa	564.29
333.22 K, 9997 kPa	574.58
333.22 K, 15004 kPa	583.44
333.22 K, 19992 kPa	591.23
333.22 K, 25005 kPa	598.27
333.22 K, 30004 kPa	604.66
333.22 K, 35005 kPa	610.54
333.22 K, 39985 kPa	615.98
338.22 K, 1226 kPa	548.04
338.22 K, 4986 kPa	557.85
338.22 K, 10000 kPa	568.81
338.22 K, 15000 kPa	578.1
338.22 K, 20000 kPa	586.27
338.22 K, 25000 kPa	593.57
338.22 K, 29994 kPa	600.18
338.22 K, 35008 kPa	606.28
338.22 K, 39996 kPa	611.89
343.22 K, 1315 kPa	540.98
343.22 K, 29988 kPa	595.68
343.22 K, 34990 kPa	601.95
343.22 K, 39986 kPa	607.75
343.23 K, 4999 kPa	551.32
343.23 K, 10003 kPa	562.95
343.23 K, 14999 kPa	572.73
343.23 K, 19997 kPa	581.25
343.23 K, 25007 kPa	588.85
348.23 K, 1414 kPa	533.71
348.23 K, 4992 kPa	544.57
348.23 K, 10005 kPa	556.98
348.23 K, 14992 kPa	567.27
348.23 K, 19998 kPa	576.19
348.23 K, 25013 kPa	584.1
348.23 K, 29992 kPa	591.18
348.23 K, 35003 kPa	597.68
348.23 K, 39996 kPa	603.63
353.23 K, 1522 kPa	526.23
353.23 K, 4999 kPa	537.68
353.23 K, 9984 kPa	550.87
353.23 K, 14991 kPa	561.76
353.23 K, 20002 kPa	571.1
353.23 K, 25003 kPa	579.31
353.23 K, 30000 kPa	586.67
353.23 K, 35004 kPa	593.37
353.23 K, 39995 kPa	599.51
358.23 K, 1641 kPa	518.52
358.23 K, 4984 kPa	530.51
358.23 K, 10005 kPa	544.73
358.23 K, 14998 kPa	556.2
358.23 K, 20004 kPa	565.97
358.23 K, 24987 kPa	574.48
358.23 K, 29994 kPa	582.12
358.23 K, 35007 kPa	589.05
358.23 K, 39996 kPa	595.37
363.23 K, 1765 kPa	510.53
363.23 K, 5001 kPa	523.21
363.23 K, 9988 kPa	538.37
363.23 K, 14981 kPa	550.47
363.23 K, 19993 kPa	560.72
363.23 K, 25001 kPa	569.62
363.23 K, 30001 kPa	577.52
363.23 K, 34991 kPa	584.64
363.23 K, 40008 kPa	591.18
368.24 K, 1900 kPa	502.25
368.24 K, 4996 kPa	515.59
368.24 K, 9996 kPa	531.94
368.24 K, 14998 kPa	544.78
368.24 K, 19997 kPa	555.48
368.24 K, 25002 kPa	564.74
368.24 K, 29994 kPa	572.92
368.24 K, 35003 kPa	580.31
368.24 K, 39988 kPa	587
373.23 K, 2021 kPa	493.52
373.23 K, 4987 kPa	507.69
373.23 K, 9991 kPa	525.4
373.23 K, 14991 kPa	538.98
373.23 K, 19999 kPa	550.26
373.24 K, 24990 kPa	559.83
373.24 K, 29992 kPa	568.32
373.24 K, 34981 kPa	575.91
373.24 K, 39982 kPa	582.83
378.24 K, 2209 kPa	484.69
378.24 K, 5019 kPa	499.59
378.24 K, 10006 kPa	518.69
378.24 K, 14990 kPa	533.06
378.24 K, 20005 kPa	544.87
378.24 K, 25019 kPa	554.94
378.24 K, 30003 kPa	563.71
378.24 K, 34996 kPa	571.57
378.24 K, 40001 kPa	578.7
383.24 K, 2379 kPa	475.33
383.24 K, 5004 kPa	490.95
383.24 K, 10000 kPa	511.79
383.24 K, 14991 kPa	527.07
383.24 K, 19991 kPa	539.46
383.24 K, 24987 kPa	549.92
383.24 K, 30002 kPa	559.07
383.24 K, 34999 kPa	567.19
383.24 K, 39984 kPa	574.5
388.24 K, 2560 kPa	465.51
388.24 K, 4995 kPa	481.89
388.24 K, 9989 kPa	504.7
388.24 K, 15004 kPa	521.06
388.24 K, 20002 kPa	534.05
388.24 K, 25003 kPa	544.95
388.24 K, 29994 kPa	554.4
388.24 K, 34999 kPa	562.8
388.24 K, 39985 kPa	570.33

Conditions	vapor or sublimation pressure [kPa]
336.87 K	680.67
345.89 K	842.53
354.94 K	1035.4
363.31 K	1235
372.35 K	1486.5
376.81 K	1618.2
381.64 K	1778.4
385.75 K	1920.4
